Each structure is given as a SMILES string.

For this test, the system named is Plasmodium falciparum. Nature of the test: GSK_TCMDC: Inhibition of Plasmodium falciparum 3D7 in whole erythrocytes, using parasite LDH activity as an index of growth. The following applies: Plasmodium falciparum, 3D7. It counts as functional, organism-based.
With `CCN1CCC(N(CCCCCCCCc2ccc(C(F)(F)F)cc2)C(=O)Cn2c(CCc3cccc(F)c3F)cc(=O)c3ccccc32)CC1`, the XC50 was 1200 nM.
Turning to `O=C(NCCCCCN1CCC(c2ccc(O)cc2)CC1)c1ccc(-c2ccccc2)cc1`, the XC50 is 929 nM.
With `Nc1ccc2nc(C=Cc3ccc(Cl)cc3)[nH]c2c1` the figure was 941 nM; with `O=C(Nc1ccc(Cn2ncc(N3CCCNCC3)c(Cl)c2=O)cc1)Nc1cc(Cl)cc(Cl)c1`, 866 nM.
With `N#Cc1cccc(CN2CCCN(Cc3ccc(C(=O)Nc4ccc(Cl)cc4)cc3)CC2)c1` the figure was 882 nM.
`Nc1nccc2ccc(-c3cccnc3)cc12` came in with an XC50 of 419 nM.
`CC(=O)c1cc(N2CCOCC2)ccc1N` yielded an XC50 of 913 nM.
With `CC(=O)N(C)C1CCN(Cc2cccc(-c3ccc(-c4nc5cc(F)ccc5[nH]4)cc3)c2)C1` (configuration not stated), the XC50 amounted to 957 nM.
With `COc1cccc(-c2ccc3ccnc(N)c3c2)c1` the figure was 408 nM.
Under `CCCCC([C@@H](Cc1ccc2ccccc2c1)C(=O)N[C@H](C(=O)NC)C(C)(C)C)N(O)C=O` (some centres not stated) stands 142 nM; under `COc1ccc(C)c(Nc2ccnc(Nc3cccc(-c4nc5ccccc5[nH]4)c3)n2)c1`, 716 nM; under `CC(C)(C)c1cc(C(=O)Nc2cccnc2)cc(C(=O)Nc2cccnc2)c1`, 761 nM.
With `Cc1cc(=NN=CC=Cc2ccccc2)c2ccc(F)cc2[nH]1` the figure was 590 nM; with `CCOC(=O)C(NC(=O)c1ccc([N+](=O)[O-])o1)C(C)C` (configuration not stated), 1060 nM; with `CCC(NC[C@@H](O)[C@H](Cc1ccccc1)NC(=O)c1cc(C2CCCC2)cc(N2CCCC2=O)c1)c1cccc(Cl)c1` (some centres not stated), 35.2 nM.
With `N#Cc1ccc(-c2cnc3ccc(NCc4ccc(S(N)(=O)=O)cc4)nn23)cc1`, the XC50 stood at 785 nM.
The compound `COC(=O)c1c(NC(=O)c2cccc(C(F)(F)F)c2)sc2c1CCN(Cc1ccccc1)C2` displayed an XC50 of 1340 nM.
Regarding `Cc1ccc(/C=C/C(=O)NCCCCCN2CCCN(C(=O)Nc3ccc(Cl)c(Cl)c3)CC2)cc1`, the XC50 is 942 nM.
Under `COc1ccc(CNC2CCN(C)CC2)cc1-c1ccc(S(=O)(=O)NC2CCC2)c(F)c1` stands 840 nM.
`Cc1ccc(NC(=O)c2ccc3ncccc3c2)cc1OC1CCN(Cc2ccsc2)C1` (configuration not stated): the XC50 came out at 802 nM.
The compound `COc1ccc2ccccc2c1C=NNc1ccnc2cc(Cl)ccc12` displayed an XC50 of 615 nM.
Under `COc1ccc(-c2ccc(NC(=O)c3cccc(Cl)c3)cc2)cc1CN1CCC(O)CC1` stands 712 nM; under `Cc1cccc2nc(-c3ccc(-c4cccc(CNCCCN5CCCC5=O)c4)cc3)[nH]c12`, 840 nM; under `CC1(C)NC(N)=NC(=N)N1OCc1ccc2ccccc2c1CON1C(=N)N=C(N)NC1(C)C`, 663 nM.
With `COc1ccc(Cn2c(SCc3ccc(C)cc3)nc3cc(OC)c(OC)cc3c2=N)cc1Cl` the figure was 977 nM.
Regarding `NC(=O)c1cccc(-n2ccc3cc(CNC4Cc5ccccc5C4)ccc32)c1`, the XC50 was 1130 nM.
Regarding `Oc1ccc2[nH]cc(C3=CCN(Cc4ccccc4)CC3)c2c1`, the XC50 turned out to be 983 nM.
`CN(C)C(CNC(=O)c1cc(-c2ccncc2)c(-c2ccc(NC(=O)Nc3cccc(F)c3)cc2)o1)c1ccccc1` (configuration not stated) registered an XC50 of 772 nM.
Under `COc1ccc(C2=CCN(c3ccc(Cl)c(Cl)c3)C2=O)cc1OCCN1CCCCC1` stands 784 nM; under `CN1CCN(c2ccc(CNc3ccc4ncc(-c5ccc(OC(F)(F)F)cc5)n4n3)cc2)CC1`, 834 nM; under `CCS(=O)(=O)c1ccc(OC)c(Nc2nccc(-c3c(-c4cccc(NC(=O)c5c(F)cccc5F)c4)nn4ncccc34)n2)c1`, 1030 nM.
With `O=C(/C=C/c1ccc(-c2nc3ccc(Cl)cc3[nH]2)cc1)NC1CCN(Cc2ccccc2)CC1` the figure was 610 nM.
Compound `O=C(Nc1cccc(-c2cc(-c3c(Cl)cccc3Cl)no2)c1)c1cnc2ccccc2c1` yielded an XC50 of 1100 nM.
With `COc1cccc(CCNc2nc(NCc3ccccc3)c3cc(OC)c(OC)cc3n2)c1` the figure was 321 nM; with `Cc1ccc(NC(=O)c2ccc(CN3CCCN(Cc4cccc(O)c4)CC3)cc2)cc1C`, 864 nM; with `CCCc1ccc2c(c1O)CCC(N(CCC)CCC)C2` (configuration not stated), 886 nM.
On to `CCCCNC(=O)[C@@H](NC(=O)c1ccc(O)c(-c2ccc(Cl)c(Cl)c2)c1)C(C)C`, for which the XC50 was found to be 230 nM.
On to `O=C(/C=C/c1ccc(Cl)c(Cl)c1)NCCCCCN1CCCN(C(=O)Nc2ccc([N+](=O)[O-])cc2)CC1`, for which the XC50 was 615 nM.
In turn, `Cc1cccc2nc(-c3cccc(-c4ccc(CNCCNC(=O)c5ccnn5C)cc4)c3)[nH]c12` returned an XC50 of 167 nM.
With `FC(F)(F)c1ccc2c(NCCNc3ccnc4cc(C(F)(F)F)ccc34)ccnc2c1` the figure was 32.7 nM.
The compound `O=C(NC(c1ccc(Cl)cc1)c1ccc2cccnc2c1O)c1ccccc1` (configuration not stated) had an XC50 of 558 nM.
With `CCC(ON1C(N)=NC(N)=NC1(C)C)c1ccccc1` (configuration not stated) the figure was 33.5 nM; with `Cc1ccc(CNc2ccc3ncc(-c4cccc(C(=O)NCCN(C)C)c4)n3n2)c(C)c1`, 588 nM; with `COc1ccc(N2CCN(CCCCNC(=O)c3ccc(/C=C/c4ccc(Cl)c(Cl)c4)cc3)CC2)c(OC)c1`, 709 nM.
With `CN1CCCN(Cc2cccc(-c3cccc(NS(=O)(=O)c4cccc5cccnc45)c3)c2)CC1` the figure was 764 nM; with `COc1cc2nc(C)nc(Nc3cccc(Br)c3)c2cc1OC`, 356 nM.
The compound `Cn1nc(-c2cccc(CN[C@@H]3CCc4ccc(O)cc43)c2)c2cnc(NCCCN3CCCC3)nc21` came in with an XC50 of 831 nM.
With `O=S(=O)(Nc1cccc(CCN2CCCCC2CCN2CCCC2)c1)c1ccc2ccccc2c1` (configuration not stated) the figure was 1070 nM; with `CC1(C)CN(CCC2CCC(NC(=O)/C=C/c3ccccc3F)CC2)Cc2ccc(C#N)cc21` (configuration not stated), 1110 nM.
The compound `COc1cc(OC)c(NC(=O)COc2ccc(C)cc2)cc1Cl` showed an XC50 of 688 nM.
With `CN(Cc1ccc(C#N)cc1)C1CCN(c2cc(NC(=O)c3cccc(F)c3)ccn2)CC1` the figure was 1750 nM.
Compound `CNc1ccc(CNCc2cccc(-c3ccc(-c4nc5cccc(C)c5[nH]4)s3)c2)cc1` came in with an XC50 of 987 nM.
Under `Cc1ccc(S(=O)(=O)N(C)c2ccccc2C(=O)Nc2ccccc2Oc2ccccc2)cc1` stands 919 nM.
As to `CCOC(=O)CCCCOc1c(OC)cc(Cc2cnc(N)nc2N)cc1OC`, the XC50 worked out at 29.9 nM.
The compound `COc1cc2nc(NCCc3ccccc3)nc(NCc3cc(C)no3)c2cc1OC` registered an XC50 of 239 nM.
Under `COc1ccc(Nc2nccc(N3CCC(NC(=O)c4cccc(NC(C)=O)c4)C3)n2)cc1` (configuration not stated) stands 994 nM; under `CCOc1cc(Cc2cnc(N)nc2N)ccc1OC`, 1250 nM; under `O=c1cc(NCCCNCc2cccc(OC(F)(F)C(F)F)c2)[nH]c2ccccc12`, 1270 nM.
In turn, `Clc1ccc2c(NCc3ccc4c(c3)OCO4)ccnc2c1` registered an XC50 of 266 nM.
With `Cc1cccc2nc(-c3cccc(-c4ccc(NC(=O)Cc5ccc[n+]([O-])c5)cc4)c3)[nH]c12` the figure was 627 nM.
Regarding `CCC(C)CN1C(=O)C(c2ccccc2)(c2ccccc2)N=C1N` (configuration not stated), the XC50 turned out to be 712 nM.
With `Cc1[nH]c(C)c(-c2ccc(OCc3ccc(OC(F)(F)F)cc3)nc2)c(=O)c1Cl` the figure was 70.5 nM; with `COC(=O)c1cccc(CNCc2ccc(-c3ccc(-c4nc5ccccc5[nH]4)s3)cc2)c1`, 289 nM.
Under `CC(=O)Nc1ccc(S(=O)(=O)Nc2ccc(Nc3nc(C)cc(N4CCCCC4)n3)cc2)cc1` stands 779 nM; under `Fc1cc(Cl)ccc1Nc1ccnc2cc(-c3ccc(CNCCN4CCOCC4)o3)ccc12`, 277 nM.
With `O=C(NC1CCN(Cc2ccccc2)CC1)c1cc(-c2cccnc2)nc2ccc(Cl)cc12` the figure was 759 nM; with `CCc1c[nH]c2c(N3CCCS3(=O)=O)cc(C(=O)N[C@@H](Cc3ccccc3)[C@H](O)CNC(C)(C)c3cccc(C(F)(F)F)c3)cc12`, 228 nM.
The compound `CC1(C)[C@H]2CC[C@@H](CNc3nc(NCCc4c[nH]cn4)nc(Nc4ccc(Oc5ccccc5)cc4)n3)[C@@H]1C2` had an XC50 of 672 nM.
Consider `Cc1ccc(-c2nnc(Nc3ccc(C(=O)N4CCCCC4)cc3)c3ccccc23)cc1S(=O)(=O)NCC1CCCO1` (configuration not stated), for which the XC50 came to 709 nM.
With `O=C(NC(=O)c1ccccc1)NC1CCN(c2ccnc3cc(Cl)ccc23)C1` (configuration not stated) the figure was 584 nM.
Under `O=C(/C=C/c1cccc2ccccc12)NCCCCCN1CCC(c2c[nH]c3ccccc23)CC1` stands 1140 nM; under `COc1cccc(CNC(=O)[C@H]2CNCCN2C(=O)CCCc2ccccc2)c1`, 787 nM; under `COc1ccc2nccc([C@@H](O)CN3CCC(NCc4ccc5cccc(O)c5n4)CC3)c2c1`, 1130 nM.
`COc1ccc(-c2cc(C(=O)Nc3ccc4[nH]c(-c5ccccc5)nc4c3)[nH]n2)cc1`: the XC50 stood at 696 nM.
Under `Cc1cccc2nc(-c3cccc(-c4cccc(C(=O)NCc5nccn5C)c4)c3)[nH]c12` stands 528 nM; under `CC(C)NCc1ccc(-c2cccc(NC(=O)c3ccc(C#N)cc3)c2)cc1`, 740 nM; under `O=C(Nc1cc(C(F)(F)F)cc(C(F)(F)F)c1)N1CCC(CCN2CCC(c3c[nH]c4ccccc34)CC2)CC1`, 1260 nM.
With `Cc1oc(-c2cccc(Oc3ccccc3)c2)nc1CN(Cc1cnn(C)c1)C(C)C` the figure was 1090 nM.
For the compound `Cc1cccc2nc(-c3cccc(-c4ccc(NC(=O)Nc5ccc(F)c(F)c5F)cc4)c3)[nH]c12`, the XC50 worked out at 168 nM.
With `CCCc1cc(N2CCC(c3ccccc3)(N3CCCCC3)CC2)nc(Nc2ccc(OC)cc2)n1` the figure was 1090 nM.
Under `COc1cc2ccccc2cc1CCNCCCCNCCc1cc2ccccc2cc1OC` stands 403 nM; under `O=C(Nc1ccc(Cl)cc1)Nc1ccc(-c2cccc(-c3nc4cc(F)ccc4[nH]3)c2)cc1`, 292 nM; under `O=C(Nc1cccc(CN2CCCN(Cc3ccc(F)cc3)CC2)c1)c1cc2ccccc2s1`, 794 nM.
Compound `CCOC(=O)C1=C(C)NC2=C(C(=O)CC(C)(C)C2)C1c1ccc(Cl)cc1` (configuration not stated) had an XC50 of 923 nM.
With `Nc1ncc(-c2ccc3nccc(-c4ccncc4)c3c2)cc1S(=O)(=O)N1CCOCC1` the figure was 872 nM.
The compound `COC(=O)c1ccc(CC(C)NCC(O)c2cccc3ccccc23)cc1` (configuration not stated) yielded an XC50 of 935 nM.
Under `COc1cc(OCCCN(C)Cc2ccc(OC)c(OC)c2)ccc1NC(=O)c1cccc2c(O)c3cccc(F)c3nc12` stands 891 nM.

The values are drawn from ChEMBL document CHEMBL1157539, “Thousands of chemical starting points for antimalarial lead identification” (Nature, 2010).
